In patent US9650395B2, “Antibacterial compounds and methods for use” (PTC Therapeutics, Inc., priority 2011, dated 2017) one finds MIC data, which are given here for 22 molecules.

SMILES strings stand for the structures. ≈ marks a conversion by molar mass, not a printed value. Counter-ions that a name gives are not always drawn. Like-named read-outs stand apart in the source and are kept apart here. Bounds are passed on as bounds.

In experiment [1] the test system is quinolone resistant E. coli LZ3111. Nature of the experiment: Antibacterial activity, MIC, quinolone resistant E. coli LZ3111. The class given is cell-based, Escherichia coli. Conditions: Escherichia coli, read-out: MIC, LZ3111. From the text: The antibacterial activity from a microbroth dilution method may be presented as the minimum inhibitory concentration (MIC in […]). The MIC value is the lowest concentration of a drug which prevents macroscopically visible bacterial growth under test conditions.
Mutations in these regions are known to confer a high level resistance to the quinolone class of antibiotics.

Experiment [2] concerns control Gram-negative E. coli 25922 strain. Nature of the experiment: Antibacterial activity, microbroth dilution MIC, E. coli 25922. The format is cell-based, Escherichia coli. Conditions: Escherichia coli; E. coli 25922, microbroth dilution; read-out: MIC, 25922. On the technique in general: In broth dilution the organism is exposed to a series of concentrations in liquid medium.

Experiment [3] has as its system super sensitive Gram-negative Escherichia coli (E. coli) BAS849. Kind of experiment: Antibacterial activity, microbroth dilution MIC, E. coli BAS849. The format is cell-based. The note with it: Escherichia coli, read-out: MIC, BAS849.
The test system of experiment [4] is Gram-positive Staphylococcus aureus (S. aureus) 29213. Kind of experiment: Antibacterial activity, microbroth dilution MIC, S. aureus 29213. The class given is cell-based. The note with it: Staphylococcus aureus; S. aureus 29213, microbroth dilution; read-out: MIC, 29213.
[5] abbreviates: E. coli BAS849, microbroth dilution.

The term MIC denotes the lowest concentration found to suppress growth. On to `CCc1c(-c2c(OC)cc(OC)cc2OC)[nH]c(=O)c(C(=O)O)c1O` [Cpd 41, 5-ethyl-4-hydroxy-2-oxo-6-(2,4,6-trimethoxyphenyl)-1,2-dihydropyridine-3-carboxylic acid], for which the MIC in experiment [1], in experiment [2], in experiment [3] (setting [5]) and in experiment [4] was 12.5 to 150 µg/mL (≈ 35.8 to 429 µM) each time.
Take `CCc1cc(C(=O)O)c(=O)[nH]c1-c1ccc(N2CC[C@H](O)C2=O)cc1` [Cpd 117, 5-ethyl-6-{4-[(3S)-3-hydroxy-2-oxopyrrolidin-1-yl]phenyl}-2-oxo-1,2-dihydropyridine-3-carboxylic acid]: the MIC in experiment [1], in experiment [2], in experiment [3] (setting [5]) and in experiment [4] was 12.5 to 150 µg/mL (≈ 36.5 to 438 µM) throughout.
Take `CCc1c(-c2ccc(N3C[C@H](CN(Cc4ccccc4)Cc4ccccc4)[C@@H](C)C3)cc2)[nH]c(=O)c(C(=O)O)c1O` [Cpd 249, 6-(4-{(3S,4R)-3-[(dibenzylamino)methyl]-4-methylpyrrolidin-1-yl}phenyl)-5-ethyl-4-hydroxy-2-oxo-1,2-dihydropyridine-3-carboxylic acid]: the MIC in experiment [1], in experiment [2], in experiment [3] (setting [5]) and in experiment [4] was 12.5 to 150 µg/mL (≈ 22.7 to 272 µM) throughout.
As to `CCc1c(-c2ccc(N3CCCCC3)cc2OC)[nH]c(=O)c(C(=O)O)c1O` [Cpd 49, 5-ethyl-4-hydroxy-6-[2-methoxy-4-(piperidin-1-yl)phenyl]-2-oxo-1,2-dihydropyridine-3-carboxylic acid], the MIC lay in the range of 12.5 to 150 µg/mL (≈ 33.6 to 403 µM) in experiment [1], 12.5 to 150 µg/mL (≈ 33.6 to 403 µM) in experiment [2], 3.5 to 12.5 µg/mL (≈ 9.4 to 33.6 µM) in experiment [3] (setting [5]) and 3.5 to 12.5 µg/mL (≈ 9.4 to 33.6 µM) in experiment [4].
With `CCc1cc(C(=O)O)c(=O)[nH]c1-c1ccc(N2C[C@H]3CCCC[C@@]3(CN(C)C)C2)cc1.O=C(O)C(F)(F)F` [Cpd 205, 6-(4-{(3aR,7aS)-3a-[(dimethylamino)methyl]octahydro-2H-isoindol-2-yl}phenyl)-5-ethyl-2-oxo-1,2-dihydropyridine-3-carboxylic acid trifluoroacetate], the minimum inhibitory concentration (MIC) in experiment [1] was 12.5 to 150 µg/mL; in experiment [2], 12.5 to 150 µg/mL; in experiment [3], 1 to 3.5 µg/mL; in experiment [4], 12.5 to 150 µg/mL.
`CCc1cc(C(=O)O)c(=O)[nH]c1-c1ccc(N2CC3CCCNC3C2)cc1.Cl` (stereo not shown) [Cpd 213, 5-ethyl-6-[4-(octahydro-6H-pyrrolo[3,4-b]pyridin-6-yl)phenyl]-2-oxo-1,2-dihydropyridine-3-carboxylic acid hydrochloride]: the MIC fell in the range of 12.5 to 150 µg/mL in experiment [1], 12.5 to 150 µg/mL in experiment [2], 1 to 3.5 µg/mL in experiment [3] (setting [5]) and 12.5 to 150 µg/mL in experiment [4].
For `CCc1cc(C(=O)O)c(=O)[nH]c1-c1ccc(N2C[C@@H](N)[C@@H](O)C2)cc1.O=C(O)C(F)(F)F` [Cpd 136, 6-{4-[(3R,4S)-3-amino-4-hydroxypyrrolidin-1-yl]phenyl}-5-ethyl-2-oxo-1,2-dihydropyridine-3-carboxylic acid trifluoroacetate], the MIC in experiment [1] was in the range of 12.5 to 150 µg/mL; in experiment [2] it was 12.5 to 150 µg/mL; in experiment [3], 1 to 3.5 µg/mL; in experiment [4], 12.5 to 150 µg/mL.
Consider `CCc1c(-c2ccc(N3CCC(C)(O)C3)cc2)[nH]c(=O)c(C(=O)O)c1O` (stereo not shown) [Cpd 289, 5-ethyl-4-hydroxy-6-[4-(3-hydroxy-3-methylpyrrolidin-1-yl)phenyl]-2-oxo-1,2-dihydropyridine-3-carboxylic acid], for which the MIC in experiment [1] is 12.5 to 150 µg/mL (≈ 34.9 to 419 µM); in experiment [2], 1 to 3.5 µg/mL (≈ 2.79 to 9.77 µM); in experiment [3] (setting [5]) it was less than 1 µg/mL; in experiment [4] it was 1 to 3.5 µg/mL (≈ 2.79 to 9.77 µM).
Regarding `CCc1cc(C(=O)O)c(=O)[nH]c1-c1ccc(CN(C)C)n1C` [Cpd 351, 6-(5-((dimethylamino)methyl)-1-methyl-1H-pyrrol-2-yl)-5-ethyl-2-oxo-1,2-dihydropyridine-3-carboxylic acid], the minimal inhibitory concentration (MIC) in experiment [1], in experiment [2], in experiment [3] (setting [5]) and in experiment [4] was 12.5 to 150 µg/mL (≈ 41.2 to 494 µM) in each case.
For `CCc1cc(C(=O)O)c(=O)[nH]c1-c1ccc(N2C[C@H]3CCC[C@@H](NC)[C@H]3C2)cc1` [Cpd 195, 5-ethyl-6-{4-[(3aR,4R,7aS)-4-(methylamino)octahydro-2H-isoiridol-2-yl]phenyl}-2-oxo-1,2-dihydropyridine-3-carboxylic acid trifluoroacetate], the MIC in experiment [1] was in the range of 12.5 to 150 µg/mL; in experiment [2], 3.5 to 12.5 µg/mL; in experiment [3], 1 to 3.5 µg/mL; in experiment [4], 12.5 to 150 µg/mL.
As to `CCc1cc(C(=O)O)c(=O)[nH]c1-c1cc(CN2CCCCC2)n(C)c1` [Cpd 349, 5-ethyl-6-(1-methyl-5-(piperidin-1-ylmethyl)-1H-pyrrol-3-yl)-2-oxo-1,2-dihydropyridine-3-carboxylic acid], the MIC in experiment [1], in experiment [2], in experiment [3] (setting [5]) and in experiment [4] was 12.5 to 150 µg/mL (≈ 36.4 to 437 µM) throughout.
As for `CCc1cc(C(=O)O)c(=O)[nH]c1-c1ccc(N2C[C@H]3C[C@H](N)[C@H]3C2)cc1.Cl` [Cpd 212, 6-{4-[(1S,5R,6S)-6-amino-3-azabicyclo[3.2.0]hept-3-yl]phenyl}-5-ethyl-2-oxo-1,2-dihydropyridine-3-carboxylic acid hydrochloride], the MIC was 12.5 to 150 µg/mL in experiment [1], 3.5 to 12.5 µg/mL in experiment [2], less than 1 µg/mL in experiment [3] (setting [5]) and 12.5 to 150 µg/mL in experiment [4].
For the molecule `CCc1c(-c2ccc(OC)c(OC)c2OC)[nH]c(=O)c(C(=O)O)c1O` [Cpd 42, 5-ethyl-4-hydroxy-2-oxo-6-(2,3,4-trimethoxyphenyl)-1,2-dihydropyridine-3-carboxylic acid], the MIC in experiment [1] is 12.5 to 150 µg/mL (≈ 35.8 to 429 µM); in experiment [2] it was 12.5 to 150 µg/mL (≈ 35.8 to 429 µM); in experiment [3] (setting [5]) it was less than 1 µg/mL; in experiment [4], 1 to 3.5 µg/mL (≈ 2.86 to 10 µM).
In the case of `CCc1cc(C(=O)O)c(=O)[nH]c1-c1ccc(OC)cc1F` [Cpd 30, 5-ethyl-6-(2-fluoro-4-methoxyphenyl)-2-oxo-1,2-dihydropyridine-3-carboxylic acid], the MIC in experiment [1] lay in the range of 12.5 to 150 µg/mL (≈ 42.9 to 515 µM); in experiment [2], 12.5 to 150 µg/mL (≈ 42.9 to 515 µM); in experiment [3] (setting [5]) it was 1 to 3.5 µg/mL (≈ 3.43 to 12 µM); in experiment [4], 12.5 to 150 µg/mL (≈ 42.9 to 515 µM).
Take `CCc1c(-c2ccc(N3CCCCC3)cc2F)[nH]c(=O)c(C(=O)O)c1O` [Cpd 44, 5-ethyl-6-[2-fluoro-4-(piperidin-1-yl)phenyl]-4-hydroxy-2-oxo-1,2-dihydropyridine-3-carboxylic acid]: the MIC in experiment [1] lay within 12.5 to 150 µg/mL (≈ 34.7 to 416 µM); in experiment [2], 12.5 to 150 µg/mL (≈ 34.7 to 416 µM); in experiment [3] (setting [5]) it was 1 to 3.5 µg/mL (≈ 2.77 to 9.71 µM); in experiment [4], 1 to 3.5 µg/mL (≈ 2.77 to 9.71 µM).
Consider `CCc1c(-c2ccc(N3CCC(N(C)C)C3)cc2F)[nH]c(=O)c(C(=O)O)c1O` (stereo not shown) [Cpd 291, 6-{4-[3-(dimethylamino)pyrrolidin-1-yl]-2-fluorophenyl}-5-ethyl-4-hydroxy-2-oxo-1,2-dihydropyridine-3-carboxylic acid], for which the MIC in experiment [1] is 12.5 to 150 µg/mL (≈ 32.1 to 385 µM); in experiment [2], 3.5 to 12.5 µg/mL (≈ 8.99 to 32.1 µM); in experiment [3] (setting [5]) it was 1 to 3.5 µg/mL (≈ 2.57 to 8.99 µM); in experiment [4], 12.5 to 150 µg/mL (≈ 32.1 to 385 µM).
As for `CCc1cc(C(=O)O)c(=O)[nH]c1-c1ccc(N2C[C@@H]3CCC[C@]3(C(=O)O)C2)cc1.O=C(O)C(F)(F)F` [Cpd 220, (3aR,6aR)-2-[4-(5-carboxy-3-ethyl-6-oxo-1,6-dihydropyridin-2-yl)phenyl]hexahydrocyclopenta[c]pyrrole-3a(1H)-carboxylic acid trifluoroacetate], the MIC is 12.5 to 150 µg/mL in experiment [1], 12.5 to 150 µg/mL in experiment [2], 3.5 to 12.5 µg/mL in experiment [3] and 12.5 to 150 µg/mL in experiment [4].
For `CCc1cc(C(=O)O)c(=O)[nH]c1-c1ccc(N2CCCCC2)c(OC)c1` [Cpd 68, 5-ethyl-6-[3-methoxy-4-(piperidin-1-yl)phenyl]-2-oxo-1,2-dihydropyridine-3-carboxylic acid], the MIC in experiment [1], in experiment [2], in experiment [3] (setting [5]) and in experiment [4] was 12.5 to 150 µg/mL (≈ 35.1 to 421 µM) throughout.
Consider `CCc1cc(C(=O)O)c(=O)[nH]c1-c1ccc(N2C(=O)CCC2C)cc1` (stereo not shown) [Cpd 116, 5-ethyl-6-[4-(2-methyl-5-oxopyrrolidin-1-yl)phenyl]-2-oxo-1,2-dihydropyridine-3-carboxylic acid], for which the MIC in experiment [1], in experiment [2], in experiment [3] (setting [5]) and in experiment [4] was 12.5 to 150 µg/mL (≈ 36.7 to 441 µM) each time.
Take `CCc1cc(C(=O)O)c(=O)[nH]c1-c1ccc(N2CC(n3nnc(C)n3)C2)cc1` [Cpd 168, 5-ethyl-6-{4-[3-(5-methyl-2H-tetrazol-2-yl)azetidin-1-yl]phenyl}-2-oxo-1,2-dihydropyridine-3-carboxylic acid]: the MIC is 12.5 to 150 µg/mL (≈ 32.9 to 394 µM) in experiment [1], 12.5 to 150 µg/mL (≈ 32.9 to 394 µM) in experiment [2], less than 1 µg/mL in experiment [3] (setting [5]) and 12.5 to 150 µg/mL (≈ 32.9 to 394 µM) in experiment [4].
Turning to `CCc1c(-c2ccc(N3C[C@H]4C[C@@H](NCc5ccccc5)C[C@H]4C3)cc2)[nH]c(=O)c(C(=O)O)c1O` [Cpd 250, 6-{4-[(3aR,5r,6aS)-5-(benzylamino)hexahydrocyclopenta[c]pyrrol-2(1H)-yl]phenyl}-5-ethyl-4-hydroxy-2-oxo-1,2-dihydropyridine-3-carboxylic acid], the MIC lay in the range of 12.5 to 150 µg/mL (≈ 26.4 to 317 µM) in experiment [1], 12.5 to 150 µg/mL (≈ 26.4 to 317 µM) in experiment [2], 3.5 to 12.5 µg/mL (≈ 7.39 to 26.4 µM) in experiment [3] (setting [5]) and 12.5 to 150 µg/mL (≈ 26.4 to 317 µM) in experiment [4].
As for `CCc1cc(C(=O)O)c(=O)[nH]c1-c1ccc(N2C[C@H]3CNC[C@H]3C2)cc1.Cl` [Cpd 207, 5-ethyl-6-{4-[(3aR,6aS)-hexahydropyrrolo[3,4-c]pyrrol-2(1H)-yl]phenyl}-2-oxo-1,2-dihydropyridine-3-carboxylic acid hydrochloride], the MIC in experiment [1] is 12.5 to 150 µg/mL; in experiment [2] it was 12.5 to 150 µg/mL; in experiment [3] (setting [5]) it was 3.5 to 12.5 µg/mL; in experiment [4], 12.5 to 150 µg/mL.
